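The compound was tested at five concentrations on cells cultured in 96-well plates, with a 48-hour exposure period. GI50 marks 50% less growth.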 Activity calls are given as the source filed them. Cut-off read from the data, not from the text of the source: active = GI50 up to about 1.1 µM and inactive = higher.
How the values were obtained:
Assay in all cases: growth of human tumour cells (NCI), 48 h
[1] = tested on: A549
[2] = tested on: HL-60
[3] = tested on: KM12
[4] = tested on: DU-145
[5] = tested on: MDA-MB-435
[6] = tested on: TK-10
[7] = tested on: MCF7
[8] = tested on: PC-3
[9] = tested on: BT-549
[10] = tested on: HOP-92
[11] = tested on: OVCAR-4
[12] = tested on: MDA-MB-231
[13] = tested on: SF-268
[14] = tested on: SK-MEL-28
[15] = tested on: U-251
[16] = tested on: SK-MEL-2
[17] = tested on: RPMI-8226
[18] = tested on: UACC-62
[19] = tested on: SF-295
[20] = tested on: CCRF-CEM

Measured: GI50

CN1CCN(c2ccc3[nH]c(-c4ccc5[nH]c(-c6ccc(O)cc6)nc5c4)nc3c2)CC1
inactive: [1] 332 µM | [2] 11.9 µM | [3] 242 µM | [4] 329 µM | [5] 8.28 µM | [6] 705 µM | [7] 4.98 µM | [8] 687 µM | [9] 455 µM | [10] 33.7 µM | [11] 274 µM | [12] 481 µM | [13] 70.8 µM | [14] 19.8 µM | [15] 179 µM | [16] > 100 µM

C=CCCC(=O)CC(O)(C(F)(F)F)C(F)(F)F
inactive: [17] > 100 µM | [1] > 100 µM | [2] > 100 µM | [3] > 100 µM | [4] > 100 µM | [18] > 100 µM | [5] > 100 µM | [6] > 100 µM | [7] > 100 µM | [8] > 100 µM | [9] > 100 µM | [19] > 100 µM | [10] > 100 µM | [11] > 100 µM | [12] > 100 µM | [20] > 100 µM | [14] > 100 µM | [15] > 100 µM | [16] > 100 µM

c1ccc(C2=Nn3c(CCCCCCCCc4nnc5n4N=C(c4ccccc4)CS5)nnc3SC2)cc1
inactive: [17] > 100 µM | [1] > 100 µM | [3] > 100 µM | [4] > 100 µM | [18] 46.8 µM | [5] > 100 µM | [6] 29.2 µM | [7] > 100 µM | [8] > 100 µM | [9] > 57.7 µM | [19] 20.1 µM | [10] 34.2 µM | [11] > 100 µM | [12] 22.9 µM | [13] 23.1 µM | [20] 22.6 µM | [14] > 100 µM | [15] 15.6 µM | [16] 32.1 µM

CC(=O)N(O)[C@@H]1CC[C@H](n2cnc3c(N)ncnc32)C1
inactive: [17] > 100 µM | [1] > 100 µM | [3] > 100 µM | [4] > 100 µM | [18] > 100 µM | [5] > 100 µM | [6] > 100 µM | [7] > 100 µM | [8] > 100 µM | [9] > 100 µM | [19] > 100 µM | [10] > 100 µM | [11] > 100 µM | [12] > 100 µM | [13] > 100 µM | [20] > 100 µM | [14] > 100 µM | [15] > 100 µM | [16] > 100 µM

C[C@@H]1OC(=O)C[C@H]2CC(=O)N(CCC3CN(C(=O)c4ccccc4)c4ccccc43)C[C@@H]21 (some centres undefined)
inactive: [17] > 100 µM | [1] > 100 µM | [3] > 100 µM | [4] > 100 µM | [18] > 100 µM | [5] > 100 µM | [6] > 100 µM | [7] > 100 µM | [8] > 100 µM | [9] > 100 µM | [19] > 100 µM | [10] > 100 µM | [11] > 100 µM | [12] > 100 µM | [13] > 100 µM | [14] > 100 µM | [15] > 100 µM | [16] > 100 µM

c1ccc(C2C3=C(CCCC3)Nc3nc4cc5ccccc5cc4n32)cc1 (centres undefined)
inactive: [17] > 100 µM | [1] > 100 µM | [2] > 100 µM | [3] > 100 µM | [4] > 100 µM | [18] > 100 µM | [5] > 100 µM | [7] > 100 µM | [8] > 100 µM | [9] > 100 µM | [19] > 100 µM | [10] > 100 µM | [11] > 100 µM | [12] > 100 µM | [13] > 100 µM | [20] > 100 µM | [14] > 100 µM | [15] > 100 µM | [16] > 100 µM

COc1cccc2c1-c1ccccc1[C@H](Nc1ccccc1)[C@@]2(C)O
inactive: [1] 7.5 µM | [2] 5.42 µM | [3] 3.04 µM | [4] 5.3 µM | [18] 9.12 µM | [5] 1.56 µM | [6] 8.87 µM | [7] 4.34 µM | [8] 6.21 µM | [9] 8.41 µM | [19] 4.13 µM | [10] 11.2 µM | [11] 10.3 µM | [12] 10.3 µM | [13] 5.71 µM | [20] 1.42 µM | [14] 11.3 µM | [15] 4.84 µM | [16] 6.12 µM

C1CC[C@H]2SSC3CCCC[C@H]3SSC2C1 (some centres undefined)
inactive: [17] > 100 µM | [1] > 100 µM | [2] > 100 µM | [3] > 100 µM | [4] > 100 µM | [18] > 100 µM | [5] > 100 µM | [6] > 100 µM | [7] > 100 µM | [8] > 100 µM | [9] > 100 µM | [19] > 100 µM | [10] > 100 µM | [11] > 100 µM | [12] > 100 µM | [13] > 100 µM | [20] > 100 µM | [14] > 100 µM | [15] > 100 µM

CCOC(=O)Cc1csc2[n+]1C(=O)/C(=C\c1cccc(Cl)c1Cl)S2
inactive: [1] 14.8 µM | [2] 19.5 µM | [3] 15.4 µM | [4] 16.9 µM | [18] 4.94 µM | [5] 13.7 µM | [6] 16 µM | [7] 28.1 µM | [8] 13.3 µM | [9] 17.6 µM | [19] 15.3 µM | [10] 6.85 µM | [11] 11.6 µM | [12] 25.9 µM | [13] 29.2 µM | [20] 12.7 µM | [14] 19.5 µM | [15] 16.6 µM | [16] 10.6 µM

CCCCOC(=O)C(=O)C(CC(CC)C(=O)c1ccccc1)C(=O)C=C(C)C (centres undefined)
inactive: [1] > 100 µM | [2] > 100 µM | [3] > 100 µM | [4] > 100 µM | [18] > 100 µM | [5] > 100 µM | [6] > 100 µM | [7] > 100 µM | [8] > 100 µM | [9] > 100 µM | [19] > 100 µM | [10] > 100 µM | [11] > 100 µM | [12] > 100 µM | [13] > 100 µM | [20] > 100 µM | [14] > 100 µM | [15] > 100 µM | [16] > 100 µM

Cc1nc2ccc(Cl)cc2c(-n2ccnc2)c1CCn1ccnc1
inactive: [1] 34.9 µM | [2] 23.7 µM | [4] 31.9 µM | [18] 16.3 µM | [5] 32.1 µM | [6] 30.2 µM | [7] 32.3 µM | [8] 22.1 µM | [9] 19.8 µM | [19] 34.2 µM | [10] 15.9 µM | [11] 18.9 µM | [12] 17.8 µM | [13] 30.2 µM | [20] 18 µM | [14] 29.9 µM | [15] 40.5 µM | [16] 19.2 µM
